Measured values as given in publication PMC10525732, “Assessing the Activity under Different Physico-Chemical Conditions, Digestibility, and Innocuity of a GAPDH-Related Fish Antimicrobial Peptide and Analogs Thereof” (Antibiotics, 2023).
≈ marks a conversion by molar mass, not a printed value. Where two headings read alike, the source gives them in different places.

Tested on: E. coli ATCC 11229
Assay: Minimal inhibitory concentration (MIC), broth microdilution
Assay type: cell-based
Details: Escherichia coli
Description: It was cultivated in tryptic soy broth (TSB) (BD, Sparks, NV, USA) at 37 °C and subcultured three times before being used for antimicrobial activity assays.
MICs for Escherichia coli ATCC 11229 were determined using a broth microdilution protocol. Briefly, twofold dilutions of peptide solutions ([…]) were made in Mueller Hinton Broth (MHB) (Oxoid, Basingstoke, UK) in 96-well polypropylene clear round bottom microplates (Corning Inc., Corning, NY, USA). Bacteria were cultured for 18 h and then diluted in MHB broth and inoculated in the microplates so that the final inoculum in the wells was 5 × 10^5 CFU/mL. The final volumes in the wells were 200 μL. Plates were then incubated for 16 h at 37 °C. […] Chloramphenicol (Sigma-Aldrich, St. Louis, MI, USA) was used as a positive control to ensure the validity of the tests. […] MBCs were defined as the lowest peptide concentrations that inhibited 99.9% or more of bacterial growth based on the initial 5 × 10^5 CFU/mL inocula in the wells [66]. Three independent repetitions were completed, and two technical replicates were done for each independent repetition.
The impact of different salts on the antimicrobial activity of SJGAP and analogs thereof was tested by determining the effect on their MIC and MBC values. The same procedure as described above was used, but different concentrations of salts were added to the MHB medium in the microplates. To test the impact of monovalent cations, NaCl (Fisher Scientific, Fair Lawn, NJ, USA) and KCl (EMD, Gibbstown, NJ, USA) were tested at final concentrations of 50, 150, and 300 mM in the wells.
The stability of the peptides at elevated temperatures was also tested. Mixtures of the peptides solubilized in MHB medium were heated to 100 °C for 15 min in a water bath. After cooling in an ice water bath, the solutions were loaded into the microplates and inoculated with the tested bacteria to conduct the MIC and MBC assays. For all tested conditions, three independent repetitions and two technical replicates for each of these repetitions were completed.

**Q.** Which results are given for `O=C(N[C@H](CO)[C@H](O)c1ccc([N+](=O)[O-])cc1)C(Cl)Cl` [Chloramphenicol]?
**A.** MIC (ATCC11229, 16 h, MHB + 1 mM CaCl2, 16 h, 37 °C, 5 × 10^5 CFU/mL, three independent repetitions, n.a. = no activity, read-out: MIC): 8 µg/mL; MIC (ATCC11229, MHB + 1 mM MgCl2, n.a. = no activity, read-out: MIC): 8 µg/mL; MIC (ATCC11229, MHB + 5 mM CaCl2, n.a. = no activity, read-out: MIC): 8 µg/mL; MIC (ATCC11229, MHB + 5 mM MgCl2, n.a. = no activity, read-out: MIC): 8 µg/mL; MIC (ATCC11229, MHB + 10 mM CaCl2, n.a. = no activity, read-out: MIC): 8 µg/mL; MIC (ATCC11229, MHB + 10 mM MgCl2, n.a. = no activity, read-out: MIC): 8 µg/mL; MIC (ATCC11229, MHB + 50 mM KCl, n.a. = no activity, * very weak bacterial growth detected, read-out: MIC): 8 µg/mL; MIC (ATCC11229, MHB + 50 mM NaCl, n.a. = no activity, * very weak bacterial growth detected, read-out: MIC): 8 µg/mL; MIC (ATCC11229, MHB + 150 mM KCl, n.a. = no activity, * very weak bacterial growth detected, read-out: MIC): 4 µg/mL; MIC (ATCC11229, MHB + 150 mM NaCl, n.a. = no activity, * very weak bacterial growth detected, read-out: MIC): 4 µg/mL; MIC (ATCC11229, MHB + 300 mM KCl, n.a. = no activity, read-out: MIC): 2 µg/mL; MIC (ATCC11229, MHB + 300 mM NaCl, n.a. = no activity, read-out: MIC): 4 µg/mL; MIC (ATCC11229, […], peptide in MHB heated 100 °C, 15 min in water bath, cooled, then assayed, n.a. = no activity, read-out: MIC after heating treatment): 8 µg/mL (≈ 24.8 µM); MIC (ATCC11229, pH 5, MHB adjusted to pH 5 with 50 mM citrate buffer, * very weak bacterial growth detected, read-out: MIC): 0.5 µg/mL (≈ 1.55 µM); MIC (ATCC11229, pH 6, MHB adjusted to pH 6 with 50 mM citrate buffer, * very weak bacterial growth detected, read-out: MIC): 2 µg/mL (≈ 6.19 µM); MIC (ATCC11229, pH 7, MHB adjusted to pH 7 with 50 mM phosphate buffer, n.a. = no activity, read-out: MIC): 4 µg/mL (≈ 12.4 µM); MIC (ATCC11229, pH 8, MHB adjusted to pH 8 with 50 mM phosphate buffer, n.a. = no activity, read-out: MIC): 4 µg/mL (≈ 12.4 µM); MIC (ATCC11229, unmodified MHB (Ctrl −), n.a. = no activity, read-out: MIC): 8 µg/mL (≈ 24.8 µM)
